# Target: T1, mouse Tas2r108 (Mus musculus, UniProt Q9JKT3)
# T1 construct: expressed in transfected cells; host or cells: HEK293T-Gα16gust44
# T1 sequence (Q9JKT3 1-297): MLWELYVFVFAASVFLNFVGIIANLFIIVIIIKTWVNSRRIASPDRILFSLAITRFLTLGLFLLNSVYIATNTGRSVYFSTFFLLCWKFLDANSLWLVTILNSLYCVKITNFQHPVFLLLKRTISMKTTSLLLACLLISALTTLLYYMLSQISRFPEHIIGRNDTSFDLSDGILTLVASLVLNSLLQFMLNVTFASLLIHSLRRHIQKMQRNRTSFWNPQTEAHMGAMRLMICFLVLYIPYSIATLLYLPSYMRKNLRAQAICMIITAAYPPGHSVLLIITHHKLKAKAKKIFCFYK
# Assay: Calcium imaging assay (FLIPR), HEK293T-Gα16gust44 cells transfected with mouse Tas2r108
# Type: cell-based
# Conditions: for Δ F/F: Tas2r108
# Experimental: This set of bile acids was chosen because of their commercial availability in high purities, their diversity within the class of bile acids and their previous detection and quantitation in human blood. Stock solutions were prepared in DMSO.
# As basal growth medium for the HEK293T-Gα16gust44 cell line[17],[59] served Dulbecco’s modified eagle medium (DMEM) (Thermo Fisher Scientific, Darmstadt, Germany) supplemented with 10 % fetal bovine serum (Sigma-Aldrich, Steinheim, Germany), 2 mM L-glutamine (Sigma-Aldrich, Steinheim, Germany), 100 units/ml penicillin (Sigma Aldrich, Steinheim, Germany) and 100 µg/ml streptomycin (Sigma Aldrich, Steinheim, Germany). Growth conditions were 37 °C, 5 % CO2 and saturated air-humidity[60].
# HEK293T-Gα16gust44 cells were seeded on poly-D-lysine (10 µg/ml) coated 96-well plates to reach a confluence of 40-60 % the next day. For transient transfection 150 ng of plasmid DNA containing the receptor of interest and 0.3 µl lipofectamine 2000 (Thermo Fisher Scientific, Darmstadt, Germany) per well were used and transfection took place according to the manual of lipofectamine 2000. […] The empty vector DNA (mock) was transfected as negative control[14],[41].
# Cells were loaded using the calcium-sensitive fluorescent dye Fluo-4-AM (Abcam, Cambridge, Great Britain) in the presence of 2.5 mM probenecid (Sigma-Aldrich, Steinheim, Germany) the day after transfection[13],[41]. 1 h after loading, cells were washed with C1 buffer using a BioTek Cell Washer, incubated in the dark for half an hour and washed again. For automated agonist application and measurement of fluorescence changes, a FLIPR^TETRA device (Molecular Devices, San José, United States) was used. Viability of cells was tested by application of 100 nM Somatostatin 14 (Bachem, Bubendorf, Switzerland)[42].
# Measured data were negative control corrected by subtracting the signal of the mock-transfected cells and exported to Microsoft Excel using the FLIPR software ScreenWorks 4.2. In Microsoft Excel software, standardization of maximum fluorescence intensities to the basal fluorescence and normalization to the buffer-only control was done to calculate the relative fluorescence changes (ΔF/F).
# Initial screening experiments performed in duplicate wells were confirmed by at least one replication and representative traces were selected for display. All dose-response relationships were determined by three independent experiments (biological replicates) performed in duplicates (technical replicates). Threshold concentrations, defined as lowest substance concentrations leading to statistically significant elevated fluorescence changes in receptor-transfected cells compared with empty vector-transfected cells, were determined using SigmaPlot with Student’s t-test to evaluate statistical significance (p < 0.01).
smiles,measurement,setting,value
"C[C@H](CCC(=O)NCC(=O)O)[C@H]1CC[C@H]2[C@@H]3[C@H](O)C[C@@H]4C[C@H](O)CC[C@]4(C)[C@H]3C[C@H](O)[C@]12C [Glycocholic Acid, glycocholic acid]",Δ F/F,"conc. 0,01 mM",0.0107
same,Δ F/F,"conc. 0,1 mM",0.0182
same,Δ F/F,"conc. 0,03 mM",0.00676
same,Δ F/F,"conc. 0,3 mM",0.06222
same,Δ F/F,"conc. 0,001 mM",0.002806
same,Δ F/F,conc. 1 mM,0.4313
same,Δ F/F,"conc. 0,003 mM",0.003344
same,RLU,Time 0 s,0 RLU
same,RLU,Time 2 s,7.69 RLU
same,RLU,Time 4 s,11.6885 RLU
same,RLU,Time 6 s,14.9144 RLU
same,RLU,Time 8 s,2.856 RLU
same,RLU,Time 12 s,-20.1582 RLU
same,RLU,Time 14 s,-24.1348 RLU
same,RLU,Time 16 s,-22.3266 RLU
same,RLU,Time 18 s,-18.1852 RLU
same,RLU,Time 137.562 s,194.213 RLU
same,RLU,Time 143.562 s,209.767 RLU
same,RLU,Time 149.562 s,181.475 RLU
same,RLU,Time 155.562 s,183.974 RLU
same,RLU,Time 161.562 s,173.161 RLU
same,RLU,Time 167.562 s,179.231 RLU
same,RLU,Time 173.562 s,187.201 RLU
same,RLU,Time 179.562 s,174.25 RLU
same,RLU,Time 185.562 s,178.039 RLU
same,RLU,Time 191.562 s,190.798 RLU
same,RLU,Time 197.562 s,173.368 RLU
same,RLU,Time 203.562 s,190.575 RLU
same,RLU,Time 209.562 s,197.772 RLU
same,RLU,Time 215.562 s,163.432 RLU
same,RLU,Time 221.562 s,153.254 RLU
same,RLU,Time 227.562 s,164.71 RLU
same,RLU,Time 233.562 s,163.97 RLU
same,RLU,Time 239.562 s,147.809 RLU
same,RLU,Time 245.562 s,173.351 RLU
same,RLU,Time 293.562 s,149.968 RLU
same,RLU,Time 299.562 s,165.311 RLU
same,RLU,Time 305.562 s,159.539 RLU
same,RLU,Time 311.562 s,142.659 RLU
same,RLU,Time 317.562 s,150.371 RLU
same,RLU,Time 323.562 s,171.186 RLU
same,RLU,Time 329.562 s,175.087 RLU
same,RLU,Time 335.562 s,172.597 RLU
same,RLU,Time 341.562 s,183.065 RLU
same,RLU,Time 347.562 s,201.017 RLU
same,RLU,Time 353.562 s,156.745 RLU
same,RLU,Time 359.562 s,154.549 RLU
same,Activation threshold concentration Tas2r108,p < 0.01 vs empty vector,100 µM
same,RLU,time 18.797 s,-15.9795 RLU
same,RLU,time 20.797 s,-38.1063 RLU
same,RLU,time 22.797 s,-53.0656 RLU
same,RLU,time 24.797 s,-41.093 RLU
same,RLU,time 26.797 s,10.1284 RLU
same,RLU,time 28.797 s,-11.2259 RLU
same,RLU,time 30.797 s,42.3249 RLU
same,RLU,time 32.797 s,14.625 RLU
same,RLU,time 34.797 s,31.6874 RLU
same,RLU,time 36.797 s,61.9173 RLU
same,RLU,time 38.797 s,95.7369 RLU
same,RLU,time 40.797 s,96.8837 RLU
same,RLU,time 42.797 s,120.977 RLU
same,RLU,time 44.797 s,126.004 RLU
same,RLU,time 46.797 s,150.942 RLU
same,RLU,time 48.797 s,139.074 RLU
same,RLU,time 50.797 s,165.429 RLU
same,RLU,time 52.797 s,178.894 RLU
same,RLU,time 54.797 s,165.569 RLU
same,RLU,time 56.797 s,184.08 RLU
same,RLU,time 58.797 s,203.839 RLU
same,RLU,time 60.797 s,208.856 RLU
same,RLU,time 62.797 s,198.008 RLU
same,RLU,time 64.797 s,192.835 RLU
same,RLU,time 66.797 s,228.59 RLU
same,RLU,time 68.797 s,198.902 RLU
same,RLU,time 70.797 s,190.075 RLU
same,RLU,time 72.797 s,224.267 RLU
same,RLU,time 74.797 s,237.802 RLU
same,RLU,time 76.797 s,195.521 RLU
same,RLU,time 78.797 s,205.632 RLU
same,RLU,time 80.797 s,224.221 RLU
same,RLU,time 82.797 s,233.724 RLU
same,RLU,time 84.797 s,213.598 RLU
same,RLU,time 86.797 s,226.297 RLU
same,RLU,time 88.797 s,230.997 RLU
same,RLU,time 90.797 s,224.416 RLU
same,RLU,time 92.797 s,254.391 RLU
same,RLU,time 94.797 s,247.364 RLU
same,RLU,time 96.797 s,231.951 RLU
same,RLU,time 98.797 s,231.597 RLU
same,RLU,time 100.797 s,210.393 RLU
same,RLU,time 102.797 s,230.574 RLU
same,RLU,time 104.797 s,222.002 RLU
same,RLU,time 106.797 s,222.39 RLU
same,RLU,time 108.797 s,212.16 RLU
same,RLU,time 110.797 s,216.252 RLU
same,RLU,time 112.797 s,216.052 RLU
same,RLU,time 114.797 s,221.895 RLU
same,RLU,time 116.797 s,215.342 RLU
same,RLU,time 118.797 s,209.462 RLU
same,RLU,time 120.797 s,222.728 RLU
same,RLU,time 122.797 s,206.205 RLU
same,RLU,time 124.797 s,193.188 RLU
same,RLU,time 126.797 s,207.494 RLU
same,RLU,time 128.797 s,210.082 RLU
same,RLU,time 130.797 s,216.943 RLU
same,RLU,time 132.797 s,210.174 RLU
same,RLU,time 134.797 s,194.975 RLU
same,RLU,time 136.797 s,218.165 RLU

# Source: PMC10247784, “Physiological activation of human and mouse bitter taste receptors by bile acids” (Communications Biology, 2023)
